In ChEMBL document CHEMBL5291721, “A preclinical secondary pharmacology resource illuminates target-adverse drug reaction associations of marketed drugs” (Nat Commun, 2023):

Tests used:
[1] = target: T1, Alpha-1A adrenergic receptor (Homo sapiens, UniProt P35348); type: functional, cell-based
T1 sequence (P35348 whole entry): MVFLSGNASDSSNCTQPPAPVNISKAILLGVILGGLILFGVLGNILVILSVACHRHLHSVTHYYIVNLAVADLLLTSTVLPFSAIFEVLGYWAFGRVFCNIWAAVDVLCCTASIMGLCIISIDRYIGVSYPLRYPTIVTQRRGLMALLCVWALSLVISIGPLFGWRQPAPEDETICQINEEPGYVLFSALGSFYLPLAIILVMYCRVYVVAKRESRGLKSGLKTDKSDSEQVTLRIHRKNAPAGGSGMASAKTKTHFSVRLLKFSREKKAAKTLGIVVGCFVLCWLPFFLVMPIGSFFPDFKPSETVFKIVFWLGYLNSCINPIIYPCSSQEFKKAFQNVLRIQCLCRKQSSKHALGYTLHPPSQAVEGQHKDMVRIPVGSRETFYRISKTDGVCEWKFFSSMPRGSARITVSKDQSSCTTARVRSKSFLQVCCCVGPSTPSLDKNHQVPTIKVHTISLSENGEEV

[2] = target: T2, Alpha-2A adrenergic receptor (Homo sapiens, UniProt P08913)
T2 sequence (P08913 whole entry): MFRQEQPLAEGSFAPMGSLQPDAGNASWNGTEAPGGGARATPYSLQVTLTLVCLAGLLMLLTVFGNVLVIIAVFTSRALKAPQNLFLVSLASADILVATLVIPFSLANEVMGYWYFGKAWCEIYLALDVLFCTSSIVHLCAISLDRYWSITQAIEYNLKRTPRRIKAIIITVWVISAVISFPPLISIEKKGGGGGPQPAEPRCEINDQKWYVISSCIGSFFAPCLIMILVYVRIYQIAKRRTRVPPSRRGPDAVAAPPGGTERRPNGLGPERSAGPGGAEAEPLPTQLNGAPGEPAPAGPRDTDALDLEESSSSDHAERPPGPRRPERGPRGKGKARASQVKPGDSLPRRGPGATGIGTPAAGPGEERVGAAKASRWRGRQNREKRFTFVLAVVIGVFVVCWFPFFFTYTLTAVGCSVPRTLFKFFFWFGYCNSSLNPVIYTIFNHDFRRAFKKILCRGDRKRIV

Vasopressin V1a receptor = Vasopressin V1a receptor (Homo sapiens, UniProt P37288)
Prothrombin = Prothrombin (Homo sapiens, UniProt P00734); type: functional
Mu-type opioid receptor = Mu-type opioid receptor (Homo sapiens, UniProt P35372)
[3] = target: 3',5'-cyclic-AMP phosphodiesterase 4A (Homo sapiens, UniProt P27815); type: functional
[4] = target: Prostaglandin G/H synthase 1 (Homo sapiens, UniProt P23219); type: functional
[5] = target: Sodium-dependent noradrenaline transporter (Homo sapiens, UniProt P23975)
[6] = target: Sodium-dependent dopamine transporter (Homo sapiens, UniProt Q01959)
[7] = target: T1, Alpha-1A adrenergic receptor; type: functional, cell-based; remark: listed apart in the source
[8] = target: Beta-2 adrenergic receptor (Homo sapiens, UniProt P07550); type: functional, cell-based
[9] = target: T3, Muscarinic acetylcholine receptor M1 (Homo sapiens, UniProt P11229); type: functional
T3 sequence (P11229 whole entry): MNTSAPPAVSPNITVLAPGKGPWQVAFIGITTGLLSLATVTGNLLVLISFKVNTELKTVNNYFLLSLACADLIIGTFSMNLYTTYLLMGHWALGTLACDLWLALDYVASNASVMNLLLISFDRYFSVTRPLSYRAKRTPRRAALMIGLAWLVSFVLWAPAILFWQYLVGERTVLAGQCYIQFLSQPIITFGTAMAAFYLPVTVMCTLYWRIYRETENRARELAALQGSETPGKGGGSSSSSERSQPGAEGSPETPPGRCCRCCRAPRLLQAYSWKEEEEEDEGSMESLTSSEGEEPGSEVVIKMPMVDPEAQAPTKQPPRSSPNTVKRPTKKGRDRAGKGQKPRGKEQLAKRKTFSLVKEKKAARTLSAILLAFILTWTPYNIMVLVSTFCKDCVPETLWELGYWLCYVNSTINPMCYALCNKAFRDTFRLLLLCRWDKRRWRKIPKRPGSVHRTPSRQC

[10] = target: T4, Muscarinic acetylcholine receptor M2 (Homo sapiens, UniProt P08172); type: functional, cell-based
T4 sequence (P08172 whole entry): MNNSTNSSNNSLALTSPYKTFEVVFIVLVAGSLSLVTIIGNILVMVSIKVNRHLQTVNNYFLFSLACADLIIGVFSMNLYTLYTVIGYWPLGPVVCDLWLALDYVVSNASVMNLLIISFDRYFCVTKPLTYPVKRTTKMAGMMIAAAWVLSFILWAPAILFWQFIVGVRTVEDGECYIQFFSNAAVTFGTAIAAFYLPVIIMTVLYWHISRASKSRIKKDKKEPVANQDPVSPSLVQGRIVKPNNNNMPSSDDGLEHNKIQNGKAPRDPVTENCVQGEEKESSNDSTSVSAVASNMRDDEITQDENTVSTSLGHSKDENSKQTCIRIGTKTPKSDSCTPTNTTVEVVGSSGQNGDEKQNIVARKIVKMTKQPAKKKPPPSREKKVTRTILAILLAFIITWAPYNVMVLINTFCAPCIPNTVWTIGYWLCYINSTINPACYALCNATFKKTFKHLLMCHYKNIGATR

[11] = target: Muscarinic acetylcholine receptor M3 (Homo sapiens, UniProt P20309)
Histamine H1 receptor = Histamine H1 receptor (Homo sapiens, UniProt P35367)
[12] = target: Voltage-dependent L-type calcium channel subunit alpha-1C (Rattus norvegicus, UniProt P22002); type: functional
Melanocortin receptor 4 = Melanocortin receptor 4 (Homo sapiens, UniProt P32245)
Further: assay procedure not described here.

Chain of Beta-2 adrenergic receptor (P07550 whole entry): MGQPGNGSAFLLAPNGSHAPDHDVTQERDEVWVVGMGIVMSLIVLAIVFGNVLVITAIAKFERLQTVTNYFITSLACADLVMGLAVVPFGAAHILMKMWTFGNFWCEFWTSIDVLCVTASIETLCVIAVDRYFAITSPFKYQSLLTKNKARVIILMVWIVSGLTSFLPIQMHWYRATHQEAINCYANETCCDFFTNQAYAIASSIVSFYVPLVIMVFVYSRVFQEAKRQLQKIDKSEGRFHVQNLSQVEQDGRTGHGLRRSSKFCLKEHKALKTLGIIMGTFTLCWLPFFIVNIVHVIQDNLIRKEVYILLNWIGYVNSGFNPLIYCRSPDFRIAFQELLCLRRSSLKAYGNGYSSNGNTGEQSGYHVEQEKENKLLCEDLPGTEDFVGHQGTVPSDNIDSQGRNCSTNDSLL
Chain of Prostaglandin G/H synthase 1 (P23219 whole entry): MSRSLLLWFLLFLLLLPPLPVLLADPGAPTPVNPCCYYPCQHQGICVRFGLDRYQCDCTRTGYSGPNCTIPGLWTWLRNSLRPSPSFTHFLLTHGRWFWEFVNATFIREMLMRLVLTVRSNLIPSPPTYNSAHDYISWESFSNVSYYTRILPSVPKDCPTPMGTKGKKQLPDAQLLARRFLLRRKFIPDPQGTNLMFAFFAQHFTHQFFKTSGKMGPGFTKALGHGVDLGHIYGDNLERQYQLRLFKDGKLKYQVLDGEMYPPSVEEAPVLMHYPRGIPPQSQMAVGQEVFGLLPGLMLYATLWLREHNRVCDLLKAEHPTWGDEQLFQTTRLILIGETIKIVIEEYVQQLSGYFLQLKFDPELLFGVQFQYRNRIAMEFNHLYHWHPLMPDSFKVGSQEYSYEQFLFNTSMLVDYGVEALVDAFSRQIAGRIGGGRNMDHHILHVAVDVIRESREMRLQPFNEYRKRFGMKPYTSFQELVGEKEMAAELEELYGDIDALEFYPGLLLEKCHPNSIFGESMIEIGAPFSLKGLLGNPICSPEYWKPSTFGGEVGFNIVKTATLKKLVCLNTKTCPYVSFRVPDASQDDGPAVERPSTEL
Chain of Mu-type opioid receptor (P35372 whole entry): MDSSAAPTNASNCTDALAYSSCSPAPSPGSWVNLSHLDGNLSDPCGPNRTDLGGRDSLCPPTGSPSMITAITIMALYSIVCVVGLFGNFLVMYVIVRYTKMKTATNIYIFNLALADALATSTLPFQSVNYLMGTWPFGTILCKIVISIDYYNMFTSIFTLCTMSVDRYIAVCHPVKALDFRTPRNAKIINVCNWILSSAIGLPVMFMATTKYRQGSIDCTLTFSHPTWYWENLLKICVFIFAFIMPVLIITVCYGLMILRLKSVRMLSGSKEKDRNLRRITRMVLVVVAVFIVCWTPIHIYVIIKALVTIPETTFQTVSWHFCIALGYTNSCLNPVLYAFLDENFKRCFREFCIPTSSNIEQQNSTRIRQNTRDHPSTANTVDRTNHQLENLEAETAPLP
Chain of Voltage-dependent L-type calcium channel subunit alpha-1C (P22002 whole entry): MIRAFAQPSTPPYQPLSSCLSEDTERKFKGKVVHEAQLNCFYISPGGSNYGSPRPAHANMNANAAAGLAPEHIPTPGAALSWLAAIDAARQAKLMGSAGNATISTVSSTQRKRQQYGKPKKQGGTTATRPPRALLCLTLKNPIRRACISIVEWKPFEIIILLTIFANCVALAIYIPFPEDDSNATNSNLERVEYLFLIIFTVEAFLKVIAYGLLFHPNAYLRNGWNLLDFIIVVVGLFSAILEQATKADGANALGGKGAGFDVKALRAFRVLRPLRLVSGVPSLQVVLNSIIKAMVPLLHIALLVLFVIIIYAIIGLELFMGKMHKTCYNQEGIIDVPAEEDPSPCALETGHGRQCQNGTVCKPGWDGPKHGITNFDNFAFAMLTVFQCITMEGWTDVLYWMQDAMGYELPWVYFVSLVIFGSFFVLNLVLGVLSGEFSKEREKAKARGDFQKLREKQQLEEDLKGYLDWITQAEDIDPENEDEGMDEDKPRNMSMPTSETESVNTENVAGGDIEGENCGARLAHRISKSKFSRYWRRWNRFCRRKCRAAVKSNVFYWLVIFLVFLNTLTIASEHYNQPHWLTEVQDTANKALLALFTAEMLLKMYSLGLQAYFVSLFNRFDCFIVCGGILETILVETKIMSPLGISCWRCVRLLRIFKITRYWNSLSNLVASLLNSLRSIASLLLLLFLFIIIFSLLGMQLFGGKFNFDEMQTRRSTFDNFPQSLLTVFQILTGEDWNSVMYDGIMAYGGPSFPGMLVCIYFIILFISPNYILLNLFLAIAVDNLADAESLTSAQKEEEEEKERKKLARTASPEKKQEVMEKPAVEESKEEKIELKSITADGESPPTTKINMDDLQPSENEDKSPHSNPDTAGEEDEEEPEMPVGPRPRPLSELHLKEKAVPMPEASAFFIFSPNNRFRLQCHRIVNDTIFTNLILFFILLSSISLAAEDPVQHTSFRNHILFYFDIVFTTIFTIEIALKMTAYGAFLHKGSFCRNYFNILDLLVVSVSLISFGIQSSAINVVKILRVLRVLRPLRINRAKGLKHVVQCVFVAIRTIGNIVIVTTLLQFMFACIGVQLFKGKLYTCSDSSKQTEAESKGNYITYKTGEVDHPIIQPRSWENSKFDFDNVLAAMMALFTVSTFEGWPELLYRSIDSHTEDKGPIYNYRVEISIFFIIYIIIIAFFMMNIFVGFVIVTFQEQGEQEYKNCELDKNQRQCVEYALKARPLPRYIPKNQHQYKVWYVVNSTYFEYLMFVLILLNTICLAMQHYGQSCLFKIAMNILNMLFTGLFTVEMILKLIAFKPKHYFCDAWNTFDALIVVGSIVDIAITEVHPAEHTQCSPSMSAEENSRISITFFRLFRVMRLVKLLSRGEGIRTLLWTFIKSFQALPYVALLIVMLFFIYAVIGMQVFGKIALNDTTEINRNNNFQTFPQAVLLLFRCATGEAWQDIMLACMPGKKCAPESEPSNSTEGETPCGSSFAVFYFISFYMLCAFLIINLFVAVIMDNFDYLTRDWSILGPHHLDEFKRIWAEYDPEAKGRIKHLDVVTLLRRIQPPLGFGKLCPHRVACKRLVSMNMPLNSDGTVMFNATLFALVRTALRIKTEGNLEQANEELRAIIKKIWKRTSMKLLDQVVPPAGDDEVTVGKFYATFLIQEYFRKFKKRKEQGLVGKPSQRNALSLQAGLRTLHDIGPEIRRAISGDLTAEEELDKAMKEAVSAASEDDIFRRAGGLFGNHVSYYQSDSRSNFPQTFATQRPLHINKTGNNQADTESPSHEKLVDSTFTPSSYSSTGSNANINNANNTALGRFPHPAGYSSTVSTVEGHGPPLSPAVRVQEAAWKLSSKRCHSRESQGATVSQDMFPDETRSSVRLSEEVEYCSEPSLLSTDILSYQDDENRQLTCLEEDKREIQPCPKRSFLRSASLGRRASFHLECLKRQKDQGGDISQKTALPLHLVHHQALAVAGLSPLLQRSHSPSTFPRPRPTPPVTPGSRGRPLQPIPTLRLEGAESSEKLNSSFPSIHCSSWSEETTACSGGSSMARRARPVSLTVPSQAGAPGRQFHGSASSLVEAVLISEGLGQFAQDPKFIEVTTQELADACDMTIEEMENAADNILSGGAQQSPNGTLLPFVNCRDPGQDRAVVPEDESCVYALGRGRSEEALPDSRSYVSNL
Chain of Melanocortin receptor 4 (P32245 whole entry): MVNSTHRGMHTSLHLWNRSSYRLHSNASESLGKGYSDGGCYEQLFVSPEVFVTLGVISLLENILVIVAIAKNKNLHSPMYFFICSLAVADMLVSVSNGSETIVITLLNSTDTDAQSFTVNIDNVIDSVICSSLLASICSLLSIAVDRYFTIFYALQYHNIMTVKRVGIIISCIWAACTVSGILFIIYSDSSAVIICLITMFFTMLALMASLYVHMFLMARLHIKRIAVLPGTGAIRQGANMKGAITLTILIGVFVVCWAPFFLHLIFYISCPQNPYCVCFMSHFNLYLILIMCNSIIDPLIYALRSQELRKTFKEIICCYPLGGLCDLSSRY
Chain of Histamine H1 receptor (P35367 whole entry): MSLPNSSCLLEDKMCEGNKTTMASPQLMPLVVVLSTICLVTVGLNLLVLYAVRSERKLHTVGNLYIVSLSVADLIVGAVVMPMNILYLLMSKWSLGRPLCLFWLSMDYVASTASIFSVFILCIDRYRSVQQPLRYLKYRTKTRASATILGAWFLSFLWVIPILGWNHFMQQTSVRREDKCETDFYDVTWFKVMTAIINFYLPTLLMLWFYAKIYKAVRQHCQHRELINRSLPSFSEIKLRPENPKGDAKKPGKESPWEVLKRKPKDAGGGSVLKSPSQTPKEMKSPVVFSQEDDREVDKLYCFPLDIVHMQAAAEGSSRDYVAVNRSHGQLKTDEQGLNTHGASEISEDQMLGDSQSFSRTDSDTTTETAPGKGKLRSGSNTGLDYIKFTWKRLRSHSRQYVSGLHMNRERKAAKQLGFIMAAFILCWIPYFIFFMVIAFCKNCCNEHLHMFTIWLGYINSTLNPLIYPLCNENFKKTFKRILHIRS
Chain of Sodium-dependent noradrenaline transporter (P23975 whole entry): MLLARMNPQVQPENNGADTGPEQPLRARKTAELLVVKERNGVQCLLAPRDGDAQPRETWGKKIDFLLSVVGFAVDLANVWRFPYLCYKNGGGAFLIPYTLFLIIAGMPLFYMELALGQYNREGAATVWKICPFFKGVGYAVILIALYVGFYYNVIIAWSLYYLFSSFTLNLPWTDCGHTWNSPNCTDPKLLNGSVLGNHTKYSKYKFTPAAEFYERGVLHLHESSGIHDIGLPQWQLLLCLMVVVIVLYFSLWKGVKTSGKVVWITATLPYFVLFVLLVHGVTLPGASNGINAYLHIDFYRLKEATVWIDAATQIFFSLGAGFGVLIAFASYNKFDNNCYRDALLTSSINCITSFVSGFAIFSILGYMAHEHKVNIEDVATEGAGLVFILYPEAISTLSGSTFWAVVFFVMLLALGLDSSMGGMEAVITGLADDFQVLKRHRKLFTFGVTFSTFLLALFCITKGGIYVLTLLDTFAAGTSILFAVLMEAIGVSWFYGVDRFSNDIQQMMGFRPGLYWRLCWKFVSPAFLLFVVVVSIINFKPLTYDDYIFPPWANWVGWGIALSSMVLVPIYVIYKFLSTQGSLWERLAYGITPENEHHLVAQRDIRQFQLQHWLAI

Compound | AC50 [1] | AC50 [2] | AC50 (Vasopressin V1a receptor) | AC50 (Prothrombin) | AC50 (Mu-type opioid receptor) | AC50 [3] | AC50 [4] | AC50 [5] | AC50 [6] | AC50 [7] | AC50 [8] | AC50 [9] | AC50 [10] | AC50 [11] | AC50 (Histamine H1 receptor) | AC50 [12] | AC50 (Melanocortin receptor 4)
O=c1[nH]cc(F)c(=O)[nH]1 [FLUOROURACIL] | > 30 µM | > 30 µM | > 30 µM | > 30 µM | > 30 µM | > 30 µM | > 30 µM | > 30 µM | > 30 µM | – | – | – | – | – | – | – | –
N[C@@H](Cc1cc(I)c(Oc2cc(I)c(O)c(I)c2)c(I)c1)C(=O)O [LEVOTHYROXINE] | – | – | > 30 µM | – | – | – | – | – | > 30 µM | > 30 µM | > 30 µM | > 30 µM | > 30 µM | > 30 µM | > 30 µM | – | –
CN(C)CCc1c[nH]c2ccc(CS(=O)(=O)N3CCCC3)cc12 [ALMOTRIPTAN] | – | – | > 30 µM | – | – | – | – | – | > 30 µM | > 30 µM | > 30 µM | > 30 µM | > 30 µM | > 30 µM | > 30 µM | – | –
CCN(CCO)CCCC(C)Nc1ccnc2cc(Cl)ccc12 (centres undefined) [HYDROXYCHLOROQUINE] | – | – | – | – | – | – | – | – | > 10 µM | – | – | – | > 10 µM | – | – | > 10 µM | > 10 µM
CS(=O)(=O)Nc1ccc([N+](=O)[O-])cc1Oc1ccccc1 [NIMESULIDE] | > 30 µM | > 30 µM | > 30 µM | > 30 µM | > 30 µM | > 10 µM | – | > 30 µM | 9 µM | > 30 µM | > 30 µM | – | > 30 µM | – | – | – | –
CN(C)CCC=C1c2ccccc2CCc2ccccc21 [AMITRIPTYLINE] | – | 1.27 µM | > 30 µM | > 30 µM | 9.46 µM | > 30 µM | > 30 µM | – | 13.8 µM | > 30 µM | – | – | – | – | – | > 10 µM | 17.7 µM
O=C(O)COC(=O)Cc1ccccc1Nc1c(Cl)cccc1Cl [ACECLOFENAC] | – | – | > 30 µM | – | – | – | – | – | > 30 µM | > 30 µM | – | – | > 10 µM | – | – | > 10 µM | > 30 µM
CC(=O)SCC(Cc1ccccc1)C(=O)NCC(=O)OCc1ccccc1 (centres undefined) [RACECADOTRIL] | – | – | > 30 µM | – | – | – | – | – | > 30 µM | – | – | > 30 µM | > 30 µM | > 30 µM | > 30 µM | 28 µM | > 30 µM
CNC1(C)C2CCC(C2)C1(C)C (centres undefined) [MECAMYLAMINE] | – | – | > 10 µM | – | – | – | – | – | > 10 µM | – | – | > 10 µM | > 10 µM | > 30 µM | > 10 µM | > 10 µM | > 10 µM
CC(C)NCC(O)COc1ccc(CC(N)=O)cc1 (centres undefined) [ATENOLOL] | – | – | > 30 µM | – | – | – | – | – | – | > 30 µM | – | – | – | – | – | – | > 30 µM
CN1CC2c3ccccc3Oc3ccc(Cl)cc3C2C1 (centres undefined) [ASENAPINE] | – | – | > 30 µM | – | – | – | – | – | 11 µM | > 30 µM | > 30 µM | > 30 µM | > 30 µM | > 30 µM | – | – | –
NCCCCCC(=O)O [AMINOCAPROIC ACID] | – | – | – | – | – | – | – | – | 12.7 µM | – | – | – | > 10 µM | – | – | > 10 µM | > 10 µM
O=C1[C@@H]2[C@H]3CC[C@H](C3)[C@@H]2C(=O)N1C[C@@H]1CCCC[C@H]1CN1CCN(c2nsc3ccccc23)CC1 [LURASIDONE] | – | – | > 30 µM | > 30 µM | > 10 µM | 22.5 µM | > 30 µM | 24.1 µM | – | – | > 30 µM | – | – | – | 8.7 µM | – | –
O=C(c1ccccc1)c1ccc2n1CCC2C(=O)O (centres undefined) [KETOROLAC] | – | – | > 10 µM | – | – | – | – | – | > 10 µM | > 30 µM | – | – | > 30 µM | – | – | > 30 µM | > 10 µM
C[C@H](Cn1cnc2c(N)ncnc21)OCP(=O)(O)O [TENOFOVIR ANHYDROUS] | – | – | > 30 µM | – | – | – | – | – | > 30 µM | > 30 µM | – | > 30 µM | > 30 µM | > 30 µM | > 30 µM | > 30 µM | > 30 µM
NCCCNCCSP(=O)(O)O [AMIFOSTINE] | – | – | – | – | – | – | – | – | > 30 µM | > 30 µM | > 30 µM | – | > 30 µM | – | – | – | –
CC[N+](CC)(CCNC(=O)C(=O)NCC[N+](CC)(CC)Cc1ccccc1Cl)Cc1ccccc1Cl [AMBENONIUM] | – | – | > 30 µM | – | – | – | – | – | > 30 µM | – | – | 1.6 µM | 2.2 µM | 1.1 µM | > 30 µM | > 30 µM | –
CC(C)C[C@H](NC(=O)[C@H](Cc1ccccc1)NC(=O)c1cnccn1)B(O)O [BORTEZOMIB] | – | – | > 30 µM | – | – | – | – | – | > 30 µM | – | – | > 30 µM | > 30 µM | > 30 µM | > 30 µM | > 30 µM | > 30 µM
CN(C)CCN(Cc1ccccc1)c1ccccn1 [TRIPELENNAMINE] | > 30 µM | 3.08 µM | > 10 µM | > 30 µM | > 30 µM | > 30 µM | > 30 µM | 2.62 µM | 1.3 µM | – | – | > 10 µM | > 10 µM | > 30 µM | 0.08 µM | > 10 µM | > 10 µM
CCOc1ccccc1OCCN[C@H](C)Cc1ccc(OC)c(S(N)(=O)=O)c1 [TAMSULOSIN] | – | – | > 30 µM | – | – | – | – | – | > 30 µM | – | – | > 10 µM | > 10 µM | > 30 µM | > 10 µM | > 10 µM | > 30 µM
O=P1(N(CCCl)CCCl)NCCCO1 (centres undefined) [CYCLOPHOSPHAMIDE ANHYDROUS] | > 30 µM | > 30 µM | – | > 30 µM | > 30 µM | > 30 µM | > 30 µM | > 30 µM | – | – | – | – | – | – | – | – | –
CC(=O)NC[C@H]1CN(c2ccc(N3CCOCC3)c(F)c2)C(=O)O1 [LINEZOLID] | – | – | – | – | – | – | – | – | – | > 30 µM | > 30 µM | > 30 µM | – | > 30 µM | > 30 µM | – | –
CCC1(c2ccccc2)C(=O)NCNC1=O [PRIMIDONE] | – | – | – | – | – | – | – | – | > 10 µM | – | – | – | > 10 µM | – | – | > 10 µM | > 10 µM
CN1CCN(C(c2ccccc2)c2ccc(Cl)cc2)CC1 (centres undefined) [CHLORCYCLIZINE] | 4.86 µM | 3.1 µM | – | > 30 µM | > 30 µM | > 30 µM | > 30 µM | 21.2 µM | – | – | – | – | – | – | – | – | –
